The record followed here is patent US20080255121A1, “Combination Drug for Treating Autoimmune Disease” (DAINIPPON SUMITOMO PHARMA CO., LTD., priority 2004, published 2008).

Molecules are shown by their SMILES. “Also recorded” adds a separate entry of the source.

One assay deals with osteoclasts. In words: Formation of osteoclasts from cells of collagen arthritis mouse leg (TRAP staining). The assay is classed as cell-based. The settings on record: Compound (I) 0.5 to 20 μM, KN-93 0.3 to 5 μM; nine days; FIG. 5. On the procedure:
Effects of Compound (I) and KN-93 on the formation of osteoclasts were evaluated.
A mouse leg affected with developed collagen arthritis was removed and treated in an α-MEM culture medium (GIBCO, Inc.) containing 10% fetal bovine serum in the presence of dispase (Godo Shuzo) and collagenase S1 (Nitta Gelatin Inc.) at 37° C. for five to six hours and monodisperse cell suspended liquid was collected. This sample was centrifuged, rinsed by resuspension and subjected to the experiment. The cells were disseminated in 96-well plate in a ratio of 2×10^4 cells/well, an α-MEM medium containing the test compound was added thereto and incubated for nine days. After the incubation, osteoclasts were stained with a kit (Sigma, Inc.) for TRAP staining and the number of the osteoclasts per well was measured by microscopic observation. The TRAP staining was carried out in accordance with instructions attached to the kit.

The next assay relates to IκBα. Kind of assay: Degradation of IκBα in stimulated T-lymphocytes (Western blotting). The assay is classed as cell-based, mouse. As to conditions: Compound (I) 30 μM, KN-93 10 μM; EL-4 cells; FIG. 17. The method, then:
Effects of Compound (I) and KN-93 on the degradation of IκBα when T-lymphocytes were stimulated with Phorbol 12-myristate 13-acetate (PMA) and Calcium Ionophore A23187 were evaluated.
EL-4 cells (mouse T-lymphocyte cell line) were cultured in Dulbecco's Modified Eagle Medium (DMEM: GIBCO, Inc.) containing 10% fetal bovine serum and subjected to the experiments. Cells subconfluently multiplied were collected by centrifugation and dispensed into Eppendorf tubes to be contained at 5×10^6 cells/tube. After Compound (I) (final 30 μM) or KN-93 (final 10 μM) was added and preincubated at 37° C. in a water bath, stimulation by PMA (final 125 ng/ml) and A23187 (final 1 μg/ml) was performed (total volume 500 μl). After incubated for 15 minutes or 30 minutes after the stimulation, 1 ml of an ice cold stop solution (1×PBS, 1 mM Na3VO4, 5 mM EDTA) was added to terminate the reaction. After centrifugation and rinsing, it was dissolved in TNE buffer (50 mMTris-HCl, 1% NP-40, 20 mM EDTA, 100 μg/ml PMSF, 30 μl/ml Aprotinin, 1 mM Na3VO4, 5 mM NaF, 12 mM β-glycerophosphate). After performing 12% SDS-PAGE, proteins were transferred onto a PVDF membrane and western blotting was performed with anti-IκBα antibody (C-21, Santa Cruz, Inc.).
In general terms: Immunoblotting shows a protein as a band on a membrane.

The next assay has as its system SW982 cells. In words: Proliferation of human synovial cells (Alamar Blue). It counts as cell-based. The settings on record: Compound (I) 1 to 30 μM, KN-93 1 to 30 μM; FIG. 4. On the procedure: Effects of Compound (I) and KN-93 on the proliferation of SW982 cells (human synovial cell line) were evaluated.
SW982 cells (human synovial cell line; obtained from ATCC) was cultured in a FCS (product of SIGMA, Inc.) containing DMEM medium (product of GIBCO, Inc.) and subjected to the experiment. SW982 was disseminated in 96-well flat bottom plate in the absence of serum in a ratio of 4×10^4 cells/well. Compounds were added at the same time of the dissemination of the cells and incubated at 200 μl cells/well. 20 μl of Alamar Blue® was added to each well (BIOSOURCE, Inc.) after 18 hours and incubated for further six hours and the absorbance of each well was measured with a microplate reader. The absorbance was measured at two wavelengths of 570 nm and 600 nm.
For orientation: The colour change of resazurin is a common sign of viable cells or microbes.

In another assay the target is T1, CaMKIIα derived from rat (Rattus norvegicus, UniProt P11275).
T1 construct: purchased Santa Cruz, Inc
T1 sequence (P11275 whole entry): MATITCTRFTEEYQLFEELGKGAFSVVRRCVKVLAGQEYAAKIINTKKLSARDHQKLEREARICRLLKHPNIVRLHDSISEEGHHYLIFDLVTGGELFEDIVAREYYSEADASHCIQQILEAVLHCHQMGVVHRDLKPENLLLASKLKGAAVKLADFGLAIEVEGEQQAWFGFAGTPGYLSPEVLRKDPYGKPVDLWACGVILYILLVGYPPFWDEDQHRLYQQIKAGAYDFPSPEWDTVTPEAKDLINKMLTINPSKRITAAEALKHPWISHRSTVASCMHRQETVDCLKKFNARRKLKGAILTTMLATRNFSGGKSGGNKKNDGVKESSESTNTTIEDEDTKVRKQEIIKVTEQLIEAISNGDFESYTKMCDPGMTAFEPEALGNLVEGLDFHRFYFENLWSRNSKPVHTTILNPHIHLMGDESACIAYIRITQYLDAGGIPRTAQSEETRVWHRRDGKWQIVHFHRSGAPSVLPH
In words: Examination of CaMKII inhibitory activity (1), phosphorylation of Autocamtide-2. It counts as biochemical. The method, then: Test substances were dissolved in DMSO and diluted to various concentrations with a buffer solution (50 mM Tris-HCl: pH 7.5, 10 mM MgCl2, 1 mM Dithiothreitol (DTT)) (all of them are available from Nacalai Tesque, Inc.) for CaMKII reaction. CaMKIIα (final concentration 0.75 μg/ml) (Santa Cruz, Inc.) derived from rat was mixed with Autocamtide-2® (40 μM) (CALBIOCHEM Company) dissolved in CaMKII reaction buffer solution in the presence of the test substance and with CaMKII activation buffer solution (1 mMCaCl2, 1 μM calmodulin) (Nacalai Tesque, Inc.) and the reaction was started by further adding ATP (50 μM) (Nacalai Tesque, Inc.). The reaction was performed at 30° C. for five minutes and then SDS-PAGE sample buffer solution was added and the reaction was terminated by boiling for five minutes. Proteins in the reaction mixture were separated by 15% SDS-PAGE and blotted onto a PVDF membrane. Phosphorus taken in by Autocamtide-2 was reacted with an anti-phosphorylated serine/threonine antibody (Santa Cruz, Inc.) and quantified by ECL system (Amersham, Inc.) and NIH Image (downloadable from http://rsb.info.nih.gov/nih-image/).

In the next assay the test system is cyclin D1. Kind of assay: Expression of cyclin D1 in bFGF stimulated fibroblasts (Western blotting). The assay is classed as cell-based, mouse. The settings on record: Compound (I) 1.25 to 20 μM, KN-93 5 to 20 μM; L929 cells; FIG. 18. The method, then:
(§1) Effects of Compound (I) and KN-93 on effect on the expression of cyclin D1 and the phosphorylation of Akt when fibroblasts were stimulated with basic fibroblast growth factor (bFGF) were evaluated.
(§2) L929 cells (mouse fibroblast cell line) were cultured in MEM-Earl medium (E-MEM: GIBCO, Inc.) containing 10% fetal bovine serum and subjected to the experiment. The cells were suspended in a serum-free E-MEM and cultured for 72 hours. An E-MEM medium containing the test substance was added and incubated for 1 hour, and an E-MEM medium containing recombinant human FGF basic (bFGF) as a stimulant was added and further incubated. The cells were lysed in a RIPA buffer and a total cell lysate was obtained. After performing SDS-PAGE, proteins were transferred onto a PVDF membrane and western blotting was performed with anti-cyclin antibody or anti-Akt antibody (both available from Santa Cruz, Inc.).

A further assay deals with Akt. In words: Phosphorylation of Akt in bFGF stimulated fibroblasts (Western blotting). It counts as cell-based, mouse. The settings on record: Compound (I) 20 μM, KN-93 20 μM; L929 cells; FIG. 19. The method, then:
as §1, §2

With `C[C@@H](c1ccc(-c2ccccc2)c(F)c1)c1cc(/N=C(/N)N2CCOCC2)on1` [Compound (I), 3-[(1S)-1-(2-fluorobiphenyl-4-yl)ethyl]-5-{[amino(morpholin-4-yl)methylene]amino}isoxazole], in the assay on osteoclasts, the formation of osteoclasts entry is listed as “dose-dependently suppressed the formation of osteoclasts”. The “degradation of IκBα” value with IκBα is recorded as “suppressed the degradation of IκBα”. Besides, in the assay on SW982 cells, the “proliferation of SW982 cells” value was “dose-dependently suppressed the proliferation of human synovial cells; also recorded: almost completely suppressed”. For the same compound, the “Inhibition rate (%)” value on CaMKIIα derived from rat (Concentration 0.1 μm) is 39%; on CaMKIIα derived from rat (Concentration 1 μm), 47%; on CaMKIIα derived from rat (Concentration 10 μm), 85%. For the same compound, in the assay on cyclin D1, the “enhanced expression of cyclin D1” value is on record as “suppressed the enhanced expression of cyclin D1”. For the same compound, the “phosphorylation of Akt” value with Akt is on record as “suppressed the phosphorylation of Akt”.

As to `COc1ccc(S(=O)(=O)N(CCO)c2ccccc2CN(C)C/C=C/c2ccc(Cl)cc2)cc1` [KN-93, N-(2-[N-[4-chlorocinnamyl]-N-methylaminomethyl]phenyl)-N-(2-hydroxyethyl)-4-methoxybenzenesulfonamide, reference compound], the formation of osteoclasts entry in the assay on osteoclasts is “dose-dependently suppressed the formation of osteoclasts”. In addition, the “degradation of IκBα” value in the assay with IκBα is recorded as “suppressed the degradation of IκBα”. For the same compound, the “proliferation of SW982 cells” value with SW982 cells is listed as “dose-dependently suppressed the proliferation of human synovial cells; also recorded: almost completely suppressed”. Further, the “Inhibition rate (%)” value on CaMKIIα derived from rat (Concentration 0.1 μm) turned out to be 25%; on CaMKIIα derived from rat (Concentration 1 μm), 58%; on CaMKIIα derived from rat (Concentration 10 μm) it was 77%. For the same compound, in the assay with cyclin D1, the “enhanced expression of cyclin D1” value was “suppressed the enhanced expression of cyclin D1”. Besides, the “phosphorylation of Akt” value with Akt is “suppressed the phosphorylation of Akt”.
